Data taken from PubChem BioAssay AID624444 (Broad Institute, 2012).
Calls of active or inactive are those of the source.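 Rule for the calls: active = fitted curve reaches 35% signal loss at a dose no higher than twice the top tested dose; inconclusive = flat fit with 30 to 70% loss, or poor fit; inactive = the rest.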

Test system: 26S proteasome chymotrypsin-like activity (human)
Experiment: cellular 26S proteasome inhibition – U2OS cells, luminescence, dry powder, mechanism study for HSF1 activator project, dose response (AID 624444)
Settings: Proteasome-Glo chymotrypsin luminescence

Question: With `O=C(Nc1nc(SCc2ccccc2)ns1)C1CCC1` as the compound, how does the AC35 read?
Answer: Its AC35 is 35.4 µM.

Question: For `Cc1ccccc1CSc1nnc(N)s1`, which AC35 is on record?
Answer: Its AC35 is 26 µM.

Same assay, conditions: Proteasome-Glo chymotrypsin luminescence, at 38 µM (top of the series)

Question: With `O=C(Nc1nc(SCc2ccccc2)ns1)C1CC=CCC1` (configuration not stated) as the compound, how does the activity change, negative = inhibition read?
Answer: The activity change, negative = inhibition was -29.4% (inactive).

Question: How did the activity change, negative = inhibition turn out when `Nc1nc(S(=O)(=O)Cc2ccccc2)ns1` was run?
Answer: The activity change, negative = inhibition was -9% (inactive).

Question: With `Cc1ccccc1CSc1n[nH]c(N)n1` as the compound, how does the activity change, negative = inhibition read?
Answer: Its activity change, negative = inhibition is 19.2% (inactive).

Question: For `O=C(Nc1ccccc1)Nc1nc(SCc2ccccc2)ns1`, which activity change, negative = inhibition is on record?
Answer: The activity change, negative = inhibition was -37.2% (inactive).

Question: `Nc1nc(SCc2ccccc2Cl)ns1` was tested. Which activity change, negative = inhibition did it give?
Answer: The activity change, negative = inhibition was -9.05% (inactive).

Question: For `Nc1nc(SCc2ccccc2)ns1`, which activity change, negative = inhibition is on record?
Answer: Its activity change, negative = inhibition is -11% (inactive).

Question: How did the activity change, negative = inhibition turn out when `Nc1nc(SCc2ccc(F)cc2)ns1` was run?
Answer: The activity change, negative = inhibition was -32% (inactive).

Question: Which activity change, negative = inhibition does the source give for `Nc1nc(SCc2ccc(Cl)cc2Cl)ns1` here?
Answer: Its activity change, negative = inhibition is 41.7% (inactive).

Question: With `Cc1cccc(CSc2nsc(N)n2)c1` as the compound, how does the activity change, negative = inhibition read?
Answer: Its activity change, negative = inhibition is 3.69% (inactive).

Question: `Cc1ccccc1CSc1nsc(N)n1` was tested. Which activity change, negative = inhibition did it give?
Answer: The activity change, negative = inhibition was -3.56% (inactive).
